The IC50 is the concentration at which inhibition is half-maximal. A higher IC50 goes with weaker potency. The term inhibition denotes the change of the read-out against control, counted positive when it falls.

Calls of active or inactive are those of the source. The calls are words filed in the database; no cut-off is given here.

The first test deals with Ubiquitin carboxyl-terminal hydrolase 1/WD repeat-containing protein 48 (Homo sapiens, UniProt O94782). The experiment in a line: Inhibition of USP1-UAF1 complex (unknown origin) using Ub-7-amido-4-methylcoumarin as substrate incubated for 2 hrs by fluorescence based analysis.
Ubiquitin carboxyl-terminal hydrolase 1/WD repeat-containing protein 48, sequence (O94782 whole entry): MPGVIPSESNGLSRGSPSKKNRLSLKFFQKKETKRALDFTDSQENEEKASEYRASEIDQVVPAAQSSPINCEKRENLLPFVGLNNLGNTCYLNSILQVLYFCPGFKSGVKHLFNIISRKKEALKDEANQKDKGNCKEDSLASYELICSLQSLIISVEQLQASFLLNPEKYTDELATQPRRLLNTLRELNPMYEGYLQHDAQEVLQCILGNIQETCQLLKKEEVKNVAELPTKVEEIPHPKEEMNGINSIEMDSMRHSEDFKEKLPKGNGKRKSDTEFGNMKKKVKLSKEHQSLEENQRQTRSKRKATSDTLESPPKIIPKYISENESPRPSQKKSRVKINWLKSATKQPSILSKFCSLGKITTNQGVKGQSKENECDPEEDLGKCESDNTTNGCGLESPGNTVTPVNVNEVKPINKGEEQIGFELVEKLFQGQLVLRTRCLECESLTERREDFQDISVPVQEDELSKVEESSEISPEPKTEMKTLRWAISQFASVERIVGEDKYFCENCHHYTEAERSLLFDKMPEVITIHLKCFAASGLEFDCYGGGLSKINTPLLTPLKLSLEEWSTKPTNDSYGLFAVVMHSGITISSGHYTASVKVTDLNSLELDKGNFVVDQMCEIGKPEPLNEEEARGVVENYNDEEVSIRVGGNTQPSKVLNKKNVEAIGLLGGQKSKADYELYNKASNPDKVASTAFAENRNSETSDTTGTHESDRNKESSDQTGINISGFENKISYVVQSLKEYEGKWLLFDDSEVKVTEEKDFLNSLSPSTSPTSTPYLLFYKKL
Ubiquitin carboxyl-terminal hydrolase 1/WD repeat-containing protein 48, sequence (Q8TAF3 whole entry, further chain): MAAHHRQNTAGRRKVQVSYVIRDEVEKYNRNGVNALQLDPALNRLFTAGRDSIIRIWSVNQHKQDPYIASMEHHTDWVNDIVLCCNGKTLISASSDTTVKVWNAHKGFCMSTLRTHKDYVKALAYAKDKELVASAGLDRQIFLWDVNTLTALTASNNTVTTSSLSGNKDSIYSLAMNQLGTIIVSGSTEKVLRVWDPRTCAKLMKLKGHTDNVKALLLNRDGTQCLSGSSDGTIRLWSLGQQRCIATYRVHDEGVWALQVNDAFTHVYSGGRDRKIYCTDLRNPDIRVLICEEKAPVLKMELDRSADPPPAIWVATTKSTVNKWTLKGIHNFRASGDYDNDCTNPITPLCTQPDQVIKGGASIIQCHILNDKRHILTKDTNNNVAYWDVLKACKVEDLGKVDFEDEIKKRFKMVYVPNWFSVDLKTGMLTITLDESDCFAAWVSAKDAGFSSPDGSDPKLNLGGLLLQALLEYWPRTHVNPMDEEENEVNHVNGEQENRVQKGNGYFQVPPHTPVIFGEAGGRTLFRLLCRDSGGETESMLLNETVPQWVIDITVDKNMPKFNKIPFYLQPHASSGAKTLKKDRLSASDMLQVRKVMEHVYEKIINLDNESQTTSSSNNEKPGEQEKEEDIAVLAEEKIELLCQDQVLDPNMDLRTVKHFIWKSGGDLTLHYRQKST
Conditions: not given
The test is classed as protein-complex assay.
In turn, `CC(C)n1cc(C(F)(F)F)nc1-c1ccc(Cn2c(=O)ccc3cnc(-c4ccccc4Cl)nc32)cc1` registered an IC50 of 729 nM. Still for that read-out and setting: the same measure for `COc1ncnc(C2CC2)c1-c1ncc2ccc(=O)n(Cc3ccc(-c4ccc(C(F)(F)F)cn4)cc3)c2n1`: more than 10000 nM; for `CC(C)n1cc(C(F)(F)F)nc1-c1ccc(Cn2c(=O)ccc3cnc(-c4ccn(C)n4)nc32)cc1`: more than 10000 nM. Same read-out and setting: the same measure for `COc1ncnc(C2CC2)c1-c1ncc2ccc(=O)n(Cc3ccc(-c4cccc(C(F)(F)F)n4)cc3)c2n1`: 59.9 nM.

Molecule `CC(C)n1cc(C(F)(F)F)nc1-c1ccc(Cn2c(=O)ccc3cnc(-c4cccc5cnn(C)c45)nc32)cc1` displayed an IC50 of more than 10000 nM. Same read-out and setting: the same measure for `Cc1cnn(C(C)C)c1-c1ncc2ccc(=O)n(Cc3ccc(-c4nc(C(F)(F)F)cn4C(C)C)cc3)c2n1`: more than 10000 nM. Same read-out and setting: then `CC(C)n1cc(C(F)(F)F)nc1-c1ccc(Cn2c(=O)ccc3cnc(-c4ccccc4C(F)(F)F)nc32)cc1`, with 195 nM.

As to `CC(C)n1cc(C(F)(F)F)nc1-c1ccc(Cn2c(=O)ccc3cnc(-c4c(Cl)cnn4C(C)C)nc32)cc1`, the IC50 is more than 10000 nM. With `COc1ncnc(C2CC2)c1-c1ncc2ccc(=O)n(Cc3c(F)cc(-c4nc(C(F)(F)F)cn4C(C)C)cc3F)c2n1`, it took 246 nM to reach half-maximal inhibition (IC50). The same measure, in the same setting: the same measure for `COc1ccccc1-c1ncc2ccc(=O)n(Cc3ccc(-c4nc(C(F)(F)F)cn4C(C)C)cc3)c2n1`: more than 10000 nM; for `CC(C)n1cc(C(F)(F)F)nc1-c1ccc(Cn2c(=O)ccc3cnc(-c4ccccc4OC(F)(F)F)nc32)cc1`: 39.8 nM.

`COc1cccc(OC)c1-c1ncc2ccc(=O)n(Cc3ccc(-c4nc(C(F)(F)F)cn4C(C)C)cc3)c2n1` showed an IC50 of 18.8 nM. The same measure, in the same setting: then `COc1ncnc(C2CC2)c1-c1ncc2ccc(=O)n(Cc3ccc(-c4nc(C(F)(F)F)cn4C(C)C)c(F)c3)c2n1`, with 22.8 nM. With `CC(C)c1ccccc1-c1ncc2ccc(=O)n(Cc3ccc(-c4nc(C(F)(F)F)cn4C(C)C)cc3)c2n1`, 33.9 nM corresponded to half-maximal inhibition (IC50). `CC(C)n1cc(C(F)(F)F)nc1-c1ccc(Cn2c(=O)ccc3cnc(-c4c(F)cccc4Cl)nc32)cc1`: the IC50 is more than 10000 nM.

In turn, `COc1ncnc(C2CC2)c1-c1ncc2ccc(=O)n(Cc3ccc(-c4nc(C(F)(F)F)cn4CC4CC4)cc3)c2n1` returned a half-inhibitory concentration (IC50) of 11.2 nM. Same read-out and setting: then `Cc1cnn(C)c1-c1ncc2ccc(=O)n(Cc3ccc(-c4nc(C(F)(F)F)cn4C(C)C)cc3)c2n1`, with more than 10000 nM; and `COc1cc(-c2nc(C(F)(F)F)cn2C(C)C)ccc1Cn1c(=O)ccc2cnc(-c3c(OC)ncnc3C3CC3)nc21`, with 319 nM; and `CC(C)n1cc(C(F)(F)F)nc1-c1ccc(Cn2c(=O)ccc3cnc(-c4ccnn4C)nc32)cc1`, with more than 10000 nM. Same read-out and setting: then `COc1cccc(F)c1-c1ncc2ccc(=O)n(Cc3ccc(-c4nc(C(F)(F)F)cn4C(C)C)cc3)c2n1`, with 23.3 nM; and `COc1ncnc(C2CC2)c1-c1ncc2ccc(=O)n(C(C)c3ccc(-c4nc(C(F)(F)F)cn4C(C)C)cc3)c2n1` (centres undefined), with 83.9 nM; and `CC(C)n1cc(C(F)(F)F)nc1-c1ccc(Cn2c(=O)ccc3cnc(-c4c(Cl)cccc4Cl)nc32)cc1`, with more than 10000 nM.

`CC(C)n1cc(C(F)(F)F)nc1-c1ccc(Cn2c(=O)ccc3cnc(-c4cccc5ncsc45)nc32)cc1` came in with an IC50 of more than 10000 nM. The same measure, in the same setting: the same measure for `CC(C)n1cc(C(F)(F)F)nc1-c1ccc(Cn2c(=O)ccc3cnc(-c4ccccc4F)nc32)cc1`: 835 nM; for `Cc1ccccc1-c1ncc2ccc(=O)n(Cc3ccc(-c4nc(C(F)(F)F)cn4C(C)C)cc3)c2n1`: 511 nM.

The target of a further test is T1, Ubiquitin carboxyl-terminal hydrolase 1/WD repeat-containing protein 48 (Homo sapiens) (UniProt O94782+Q8TAF3). The experiment in a line: Inhibition of USP1-UAF1 complex (unknown origin) using Ub-7-amido-4-methylcoumarin as substrate at 10 uM incubated for 2 hrs by fluorescence based analysis relative to control. It is filed as protein-complex assay.
Conditions: not given
Regarding `CC(C)n1cc(C(F)(F)F)nc1-c1ccc(Cn2c(=O)ccc3cnc(-c4ccnn4C(C)C)nc32)cc1`, the inhibition amounted to 56.6%. The same measure, in the same setting: the same measure for `COc1ncnc(C2CC2)c1-c1ncc2ccc(=O)n(Cc3ccc(-c4nc(C(F)(F)F)cn4C(C)C)c(C)c3)c2n1`: 77.9%; for `COc1ncnc(C2CC2)c1-c1ncc2ccc(=O)n(Cc3ccc(-n4ccnc4)cc3)c2n1`: 56.9%. On the same count and under the same terms, the same measure for `COc1ncnc(C2CC2)c1-c1ncc2ccc(=O)n(Cc3ccc(-n4cccc4)cc3)c2n1`: 71.6%; for `COc1ncnc(C2CC2)c1-c1ncc2ccc(=O)n(Cc3ccc(-n4ccnn4)cc3)c2n1`: 54.6%; for `COc1ncccc1-c1ncc2ccc(=O)n(Cc3ccc(-c4nc(C(F)(F)F)cn4C(C)C)cc3)c2n1`: 63.9%.

Another test deals with NCI-H1299. The experiment in a line: Inhibition of colony formation in human NCI-H1299 cells at 0.5 uM measured after 7 days by SRB staining based assay relative to control. The test is classed as functional. As to conditions: NCI-H1299, 168 h, time 7 day.
Regarding `COc1cccc(OC)c1-c1ncc2ccc(=O)n(Cc3ccc(-c4nc(C(F)(F)F)cn4C(C)C)cc3)c2n1`, at 0.5 µM the inhibition was 70%. Still for that read-out and setting: then `COc1ncnc(C2CC2)c1-c1ncc2ccc(=O)n(Cc3ccc(-n4nc(C(F)(F)F)cc4C)cc3)c2n1`, with 70%.

Another test has as its system MDA-MB-436. The experiment in a line: Induction of cell cycle arrest in human MDA-MB-436 cells assessed as increase in cells at S phase at 1 uM incubated for 24 hrs by PI staining based flow cytometry analysis. The test is classed as functional.
Conditions: not given
Background: Flow cytometry measures light scatter and fluorescence of single cells or particles in a stream.
Consider `COc1cccc(OC)c1-c1ncc2ccc(=O)n(Cc3ccc(-c4nc(C(F)(F)F)cn4C(C)C)cc3)c2n1`, for which the outcome was Active. Still for that read-out and setting: then `COc1ncnc(C2CC2)c1-c1ncc2cnn(Cc3ccc(-c4nc(C(F)(F)F)cn4C(C)C)cc3)c2n1`, with “Active”; and `COc1ncnc(C2CC2)c1-c1ncc2ccc(=O)n(Cc3ccc(-n4nc(C(F)(F)F)cc4C)cc3)c2n1`, with “Active”.

The next test deals with Olaparib-resistant MDA-MB-436. The experiment in a line: Inhibition of colony formation in human Olaparib-resistant MDA-MB-436 cell assessed as cell killing at 100 nM measured after 7 days by SRB staining based assay. Particulars: time 7.0 day. It is filed as functional. (In general: The SRB assay estimates cell density from bound dye.)
With `O=C(c1cc(Cc2n[nH]c(=O)c3ccccc23)ccc1F)N1CCN(C(=O)C2CC2)CC1`, the inhibition entry is “inactive”.

In another test the target is T1, Ubiquitin carboxyl-terminal hydrolase 1/WD repeat-containing protein 48 (Homo sapiens). As to conditions: NCI-H1299, dose 20-500 nM, time 24.0 hrs.
For `COc1cccc(OC)c1-c1ncc2ccc(=O)n(Cc3ccc(-c4nc(C(F)(F)F)cn4C(C)C)cc3)c2n1`, the inhibition entry is “Dose-Dependent Effect”.

Regarding `COc1ncnc(C2CC2)c1-c1ncc2ccc(=O)n(Cc3ccc(-n4nc(C(F)(F)F)cc4C)cc3)c2n1`, the inhibition result was “Dose-Dependent Effect”.

Source of the values: ChEMBL document CHEMBL5579832, “Design, synthesis, and biological evaluation of pyrido[2,3-d]pyrimidin-7(8H)-one derivatives as potent USP1 inhibitors” (Eur J Med Chem, 2024).
